What was measured:
[1] = target: C165S AhpC-SH, C165S AhpC-SO2H and —SO3H, WT AhpC-S—S-AhpC (Salmonella typhimurium, UniProt P0A251, C166S); experiment: Control experiments using AhpC-SH, AhpC-SO2/3H and WT AhpC proteins (ESI-TOF MS); assay type: biochemical, bacteria; conditions: pH 9.5
Description: (§1) Reduced form of C165S AhpC(C165S AhpC-SH), hyperoxidized protein (C165S AhpC-SO2H and —SO3H) and WT AhpC (disulfide crosslinked dimer, […]) were incubated with 1 (5 mM) for 1.5 h at r.t., pass through the Bio-Gel spin column and analyzed by ESI-TOF MS. C165S AhpC-SO2H and —SO3H were generated by incubating C165S AhpC-SH (250 μM) in ddH2O with 20 equivalents H2O2 for 1 h at r.t. with mixing. The excess H2O2 was removed using Bio-Gel spin columns and protein concentration was determined based on absorbance at 280 nm using the extinction coefficient 24,300 (M^−1 cm^−1).
(§2) ESI-TOF-MS analysis was performed on Agilent MSD TOF system in positive ion mode with the following settings: capillary voltage (VCap) 3500 V, nebulizer gas 30 psig, drying gas 5.0 L min^−1; fragmentor 140 V; gas temperature 325° C. The samples were injected at a flow rate of 20 μL min^−1, using a syringe pump (KD Scientific). The averaged MS spectra were deconvoluted using the Agilent MassHunter Workstation Software v B.01.03.

C165S AhpC-SOH = C165S AhpC-SOH (Salmonella typhimurium, UniProt P0A251, C166S); experiment: Labeling of C165S AhpC-SOH monitored by ESI-TOF MS; assay type: biochemical, bacteria
Description: The C165S AhpC was reduced in 10 mM DTT at room temperature for […] and the DTT was then removed by passing the protein solution through a Bio-Gel spin column equilibrated with ddH2O. The protein concentration was measured based on absorbance at 280 nm using the extinction coefficient 24,300 (M^−1 cm^−1). Typically, 200-400 μM C165S AhpC protein was oxidized to —SOH by incubating with 2 equivalents H2O2 for […] at r.t. with mixing. The excess H2O2 was removed using Bio-Gel spin columns equilibrated with ddH2O.
The C165S AhpC-SOH protein generated as described above was diluted to 50 μM in 50 mM Bis-tris-citric acid buffer (pH 7.4) containing 5 mM (final concentration) of reagent 1. After 3 h incubation with mixing, 30 μL aliquot of reaction mixture was passed through a Bio-Gel column equilibrated with 0.1% formic acid for ESI-TOF MS analysis. […] The covalent C165S AhpC-1 adduct was incubated with 50 mM-1 M hydroxylamine (stock 1N hydroxylamine, pH 8.0-8.5, adjusted by adding 2 N NaOH or 1 N ammonium bicarbonate) for 1 h at 37° C. before passing through the Bio-Gel column for ESI-TOF MS analysis.
The C165S AhpC-SOH protein was immediately aliquot to appropriate buffers: 50 mM Bis-tris-citric acid pH 7.4, 8.5, and 9.5, and 25 mM critic acid-Na2HPO4 buffers pH 5.5, and 6.5. Final concentrations of 50 μM protein and 5 mM labeling reagents (dimedone or 2) were used for all reactions. Dimedone stock was made in 0.5 M Bis-tris and DMSO (v:v=1:1) to pre-buffer its acidity around 6.5 before adding it to the reaction buffers. Final DMSO concentration during labeling was 0.5%. At the end of the incubation time (4 h for data in FIG. 1—pH 7.4 and 8.5; 90 min for data in FIG. S5A—pH 5.5-9.5), 30 μl, reaction mixture at each pH was passed through a Bio-Gel spin column and analyzed by ESI-TOF MS. Data were fit using SigmaPlot 11.0 and the user defined equation below to obtain the pKa: […]
The C165S AhpC-SOH was incubated with increasing concentrations of 2 (0.2, 0.5, 1, 5, and 10 mM) for 2 h in 50 mM Bis-tris-citric acid (pH 7.4) at r.t. The reaction mixture (30 μL) was passed through a Bio-Gel spin column and analyzed by ESI-TOF MS. Data were fit to a hyperbolic equation to determine K0.5 using SigmaPlot 11.0.
C165S AhpC-SOH protein was first labeled by 2 at pH 9.5 for 1 h and passed successively through three Bio-Gel spin columns equilibrated with PBS to remove the unreacted 2. Near 100% labeling of AhpC was configured by ESI-TOF MS. The C165S AhpC-2 adduct concentration was measured at 280 nm using the extinction coefficient 24,300 (M^−1 cm^−1) and then diluted in PBS to a final concentration of 50 μM. Click reaction was conducted by adding the following reagents in order: biotin-OEG11-azide (1 mM, final, from 50 mM stock in DMSO), TCEP (2 mM, final, from 100 mM stock freshly made in H2O), TBTA (0.1 mM, final, from 1.7 mM stock made in 1:4 DMSO/t-butanol) and CuSO4 (1 mM, final, from 50 mM stock in H2O). The mixture was incubated at r.t. for 2 h and then 30 μL of reaction mixture was passed through a Bio-Gel column equilibrated with 0.1% formic acid for ESI-TOF MS analysis. The biotin moiety was removed by hydroxylamine treatment as described above and the reaction products were analyzed by ESI-TOF MS.
as §2

[2] = test system: —SOH proteins in NIH 3T3 cell lysates; experiment: Labeling of —SOH proteins in NIH 3T3 cell lysates (click biotinylation, Western blot); assay type: biochemical; conditions: for labeling of lysate proteins (streptavidin-HRP signal): 5 mM
Description: NIH 3T3 cells were cultured to 95% confluence in complete media (DMEM High Glucose (Invitrogen) supplemented with 10% fetal bovine serum (FBS, Invitrogen) and 1% penicillin & streptomycin (Invitrogen)). Cells were washed with PBS three times and lysed using 5 mM of 2 in lysis buffer (50 mM NaCl, 1 mM EDTA, 1 mM EGTA, 10% Glycerol, 1% Triton X-100, 25 mM NaF, 10 μM ZnCl2, supplemented with protease and phosphatase inhibitor tablets (Roche)). Lysis buffer was made in 50 mM citric acid/Na2HPO4 when labeling was carried out at pH 5.5 and 7.4, and in 50 mM NaHCO3/Na2CO3 for labeling at pH 9.5. Lysates were incubated for 2 h at r.t. and then quenched by adding cold MeOH/CHCl3^[1] to remove excess 2.
Cells were lysed using lysis buffer (pH 7.4) supplemented with 2 (5 mM) as described above. The labeling was allowed to proceed at r.t. for 2 h before quenching with MeOH/CHCl3. Protein pellets precipitated from 200 μL lysate were resuspended in 50 μL, 1% SDS in PBS, sonicated for 30 s and finally heated at 95° C. for 5 mins. Protein concentration was measured using Bio-Rad protein assay (SDS concentration in the assay 0.001%) and normalized to the same concentration. Click reaction was performed using the solubilized lysate proteins according to the procedures described above. After 2 h incubation, 15 μL reaction aliquot from each sample was mixed with 5 μL sample buffer (with β-mecaptoethanol) for SDS-PAGE and Western blot analysis. Biotinylated proteins were probed using Streptavidin-HRP. In control experiments, lysates were pre-reduced with 10 mM TCEP at pH 7.4 for 1 h at r.t. before the addition of 2; lysates prepared in the absence of 2 with or without click reaction were also included in the SDS-PAGE and Western blot analysis.

NIH 3T3 cells = experiment: DCF assay (intracellular ROS level); assay type: cell-based; conditions: 10 mM, 2 h
Description: NIH 3T3 cells cultured in 60-mm dishes were serum starved overnight and incubated with 10 mM dimedone, reagent 2 or 1% DMSO individually for 2 h. 5-(and-6)-carboxy-2′,7′-dichloro-dihydrofluorescein diacetate (carboxy-H2DCFDA) (100 μM; Invitrogen) was added to cells at room temperature after the incubation. The cells were then immediately washed twice with PBS and visualized with Arcturus PixCell II laser capture microscope using 20× objective.

SCC-61 cells [3] = experiment: MTT assay (cell viability); assay type: cell-based; conditions: 1 h incubation, 1-20 mM
Description: MTT (3-(4,5-dimethylthiazol-2-yl)-2,5-diphenyltetrazolium bromide) assay was used to test the SCC-61 cell viability when incubated with dimedone or 2 for 1 h. SCC-61 cells were seeded in a 96-well plate at a density of 5,000 per well in 50 μL, and incubated overnight. Dimedone or 2 (50 μL) was added to each well at final concentrations of 1, 2.5, 5, 10, and 20 mM. Plates were then incubated for 1 h at 37° C. in a humidified atmosphere with 5% CO2. MTT labeling reagent (Roche; 5 mg/ml in PBS, 10 μL) was added to each well, and the plate was incubated for 4 h at 37° C. The solubilization solution (100 μL) was then added to each well for overnight incubation at 37° C. The following day, absorbance was measured at 570 nm and all experiments were repeated twice. The resulting curves were fitted using SigmaPlot software to a sigmoidal dose-response equation to determine the IC50. The IC50 represents the concentration of chemical probe causing a 50% reduction in cell viability.

SCC-61 cells [4] = experiment: Cell membrane permeability assay; assay type: cell-based; conditions: 10 mM, 2 h
Description: SCC-61 cells were cultured to 95% confluence in complete media (DMEM/F12 High Glucose (Invitrogen) supplemented with 10% fetal bovine serum (FBS, Invitrogen), 1% penicillin & streptomycin (Invitrogen)). Cells were washed with HBSS buffer (pH 7.4) three times and incubated with 10 mM probe 2 in HBSS at r.t. for 2 h. Cells incubated in HBSS without 2 were included as controls. After the incubation, cells were carefully washed by HBSS three times to remove excess 2 and lysed with the lysis buffer described above except in the absence of 2. Lysates were incubated at r.t. for additional 2 h to ensure complete labeling prior to the addition of cold MeOH/CHCl3 for protein precipitation. The denatured proteins were resolubilized in 1% SDS (in PBS) for the click reaction, which was then followed by Western-blot analysis as described above.

[5] = test system: C165S AhpC-SH, C165S AhpC-SO2H and —SO3H, WT AhpC-S—S-AhpC; experiment: Control experiments using AhpC-SH, AhpC-SO2/3H and WT AhpC proteins (ESI-TOF MS); assay type: biochemical, bacteria; conditions: 5 mM, pH 7.4, 1.5 h at r.t.
Description: as §1, §2

[6] = cited from earlier work

Sequence of C165S AhpC-SOH (P0A251 whole entry C166S): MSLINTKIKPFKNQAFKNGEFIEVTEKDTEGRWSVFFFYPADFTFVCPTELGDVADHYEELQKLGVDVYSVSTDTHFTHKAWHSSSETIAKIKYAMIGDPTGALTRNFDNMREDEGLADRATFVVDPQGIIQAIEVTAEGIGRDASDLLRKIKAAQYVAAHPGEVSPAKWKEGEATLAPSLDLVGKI
Sequence of C165S AhpC-SH, C165S AhpC-SO2H and —SO3H, WT AhpC-S—S-AhpC (Salmonella typhimurium, UniProt P0A251, C166S) (P0A251 2-187 C166S): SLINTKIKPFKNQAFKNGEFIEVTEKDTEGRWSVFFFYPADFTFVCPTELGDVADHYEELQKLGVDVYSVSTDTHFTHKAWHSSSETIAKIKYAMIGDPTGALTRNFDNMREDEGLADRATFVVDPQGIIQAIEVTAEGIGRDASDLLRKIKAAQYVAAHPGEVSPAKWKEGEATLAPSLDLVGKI

Question: For `C#CCCOC(=O)CC(C)=O` [compound 2, but-3-yn-1-yl 3-oxobutanoate], which “adduct formation with reduced form of C165S AhpC” value [1] is on record?
Answer: The value was “no adduct formation”.

Question: And the “reactivity with AhpC-SOH as pH increases” value (C165S AhpC-SOH; higher pH (up to 9.5))?
Answer: The value was “becomes highly reactive”.

Question: And the “reactivity with AhpC-SOH at low pH” value (C165S AhpC-SOH; pH 5.5 and 6.5)?
Answer: The value was “reacts very slowly”.

Question: And the “K0.5 (hyperbolic fit of labeling vs probe concentration)” value (C165S AhpC-SOH; pH 7.4, 2 h, r.t., 0.2-10 mM probe)?
Answer: Its value is 3.0 ± 0.3 mM.

Question: And the “labeling of —SOH compared with dimedone” value (C165S AhpC-SOH; pH 7.4 and 8.5, 50 μM protein, 5 mM reagent, 4 h)?
Answer: The value was “Increased labeling”.

Question: And the “labeling of lysate proteins (streptavidin-HRP signal)” value ([2]; pH 5.5)?
Answer: Its value is “no visible signal”.

Question: And the “labeling of lysate proteins (streptavidin-HRP signal)” value ([2]; pH 7.4 and 9.5)?
Answer: Its value is “Nearly equal labeling”.

Question: And the “selectivity of labeling in cell lysates” value ([2]; pH 7.4, lysates pre-reduced with TCEP as control)?
Answer: The value was “selective towards —SOH”.

Question: And the “intracellular ROS level (DCF)” value (NIH 3T3 cells)?
Answer: The value was “did not alter the basal level of ROS”.

Question: What about the “effect on cell viability” value (SCC-61 cells [3]) of the same compound?
Answer: Its value is “did not significantly affect cell viability”.

Question: And the “cell permeability (biotin signal after click reaction)” value (SCC-61 cells [4])?
Answer: Its value is “cell permeable”.

Question: For `COC(=O)CC(C)=O` [compound 1, methyl acetoacetate], which “reaction with —SH, —S—S—, —SO2/3H, or other amino acid residues” value [5] is on record?
Answer: Its value is “did not react”.

Question: And the “labeling of C165S AhpC-SOH (adduct product peak)” value (C165S AhpC-SOH; AhpC 50 uM, reagent 5 mM, pH 7.4, 3 h)?
Answer: Its value is “labeling of C165S AhpC-SOH”.

Question: And the enol content ([6]; in aqueous solution)?
Answer: The enol content was 7.4%.

Question: For `CC1(C)CC(=O)CC(=O)C1` [dimedone, 5,5-dimethyl-1,3-cyclohexanedione, reference compound], which “reactivity at mildly acidic or basic conditions compared to pH 7.4” value (C165S AhpC-SOH; data not shown) is on record?
Answer: The value was “slight increase in reactivity”.

Question: And the “intracellular ROS level (DCF)” value (NIH 3T3 cells)?
Answer: Its value is “significant increase in ROS”.

Question: And the IC50 (SCC-61 cells [3]; read-out: IC50 (50% reduction in cell viability))?
Answer: The IC50 was 5.3 ± 0.2 mM.

Question: What about the keto-enol tautomerism state ([6]; reported) of the same compound?
Answer: The keto-enol tautomerism state was “exclusively in the enol state”.

Question: And the “pKa for the carbon between keto groups” value ([6]; reported)?
Answer: Its value is 4.3.

Source: patent publication US9023653B2, “Method of labeling sulfenic acid-containing proteins and peptides” (Wake Forest University Health Sciences, priority 2011, dated 2015)
